According to US20240408175A1, “BMP9 OR AN AGONIST THEREOF AND ITS USES RELATED TO REDUCING METASTASIS OF CANCER” (THE UAB RESEARCH FOUNDATION, priority 2021, published 2024):

Columns and labels:
SKOV3-luc-GFP cells = assay: SKOV3-luc-GFP intraperitoneal xenograft; type: in vivo, NOD-SCID mice
Experimental: All animal studies were performed in accordance with the Institutional Animal Care and Use Committee at the University of Alabama Birmingham. Female SCID mice (Key resources table) at 5-7 weeks of age were housed under pathogen-free conditions at the Animal Research Facility at UAB. 1.5×10^6 GFP-luciferase SK-OV3 cells or 3×10^6 GFP-luciferase expressing PA1 cells were intraperitoneally injected. Mice were monitored daily, with girth and weight measurement taken twice a week. Tumor progression was tracked weekly using the IVIS Lumina III In vivo Imaging System (Caliper Life Sciences, MA) at UAB's Small Animal Imaging Facility. rhBMP9 was administered at the time of tumor cell injection followed by daily intraperitoneal (i.p.) injections of 1 mg/mL in 4 mM HCl+PBS+DI water (Vehicle), to achieve a final 5 mg/kg dose. For metastasis and tumor growth analysis, mice were euthanized between 21-50 days depending on the cell line. At necropsy, ascites, if present, were collected and volumes measured when possible, tumor weights in the omentum and other organs were recorded and collected when possible. For survival studies, mice that reached end-point criteria, including continued weight loss, respiratory trouble and permanent recumbency were euthanized. For microscopic analysis of tissues, formalin-fixed tissues were processed, paraffin-embedded, and sectioned at 5 μm thickness and H&E stained at UAB's histology core.
IHC was performed using the BioCare Mach4 Universal Detection Kit. Specifically, anti-SOX2 was diluted in Da Vinci Green Diluent and incubated overnight at 4° C. in a humidified chamber. HRP was detected with 3,30-diaminobenzidine (DAB) substrate for 4 minutes. TUNEL staining was performed according to the manufacturer's instruction. Slides were examined and images captured with EVOS M7000 microscope. Cell profiler (Stirling et al., 2021) and Image J Fiji software were used for image quantification.

[1] = tested on: 1-kb SOX2 promoter reporter; assay: pGL3-SOX2 promoter-reporter luciferase assay in HEK293 cells; type: cell-based, human; conditions: 10 nM, 24 hours, serum-free
Experimental: HEK293 cells were transfected with the pGL3-SOX2 promoter-luciferase reporter plasmid construct and SV40-renilla for 24h. […] According to the manufacturer's instruction, cells were collected and lysed in […] passive lysis buffer. To measure luciferase activity, […] of lysate was added to […] of dual Luciferase Assay Reagent, and luminescence was quantitated using a luminometer (Biotek).

A2780ip2 cells = assay: Cell survival under anchorage independence, A2780ip2; type: cell-based, human; conditions: dose and time course
Experimental: For Live/Dead analysis under anchorage independence, 1,000 cells were seeded in 96-well hydrogel-coated ultra-low attachment (ULA) plates (Corning #4515) for times indicated. Growth factor treatment was done under low serum 2.5% FBS condition (Cells were plated in 10% FBS to allow spheroid formation before beginning treatment). Cells were then stained with 2 μM Calcein-AM and 4 μM Ethidium-homodimer for 30 min before imaging. z-stacked images were obtained using the Zeiss LSM700 Confocal microscope (Microscopy and Flow Cytometry Core, University of South Carolina) and NIKON A1 Confocal microscope (UAB High Resolution Imaging Facility). Fluorescent quantification was performed using ImageJ Fiji software to calculate the Corrected Total Cell Fluorescent (CTCF)=Integrated Density−(Area of selected cell×Mean fluorescence of background readings) per spheroid.

[2] = tested on: SOX2 promoter methylation; assay: Methylation-specific qPCR of SOX2 promoter; type: cell-based, human; conditions: PA1, rhBMP9 24 h
Experimental: Genomic DNA was extracted, and bisulfite conversion was performed on 500 ng of gDNA using the MethylAmp DNA modification kit according to manufacturer's instructions. Relative quantitative RT-PCR (qPCR) was performed with methylation-specific and unmethylation-specific primers (see Table 3).

PA1 cells [3] = assay: Microarray transcription profile under anchorage independence; type: cell-based, human; conditions: 24 h, 2-fold change criterion
Experimental: Lysate and RNA preparation: 100,000-300,000 cells were seeded in a poly-HEMA coated 6-well plate for indicated times in full serum unless indicated otherwise. Cells were collected by centrifugation and lysed with trizol for RNA extraction or direct 2× lysis buffer for protein lysates.
Total cellular RNA was extracted using Trizol reagent according to the manufacturer's protocol. RNA quality was determined using an Agilent 2100 Bioanalyzer and an RNA 6000 Nano kit (Agilent, Cat. No. 5067-1511) with RNA integrity numbers (RIN) ranging from 9.8 to 10. Microarray analyses were performed on the GeneChip™ Human Gene 2.0 ST ArrayS (Thermo Fisher Scientific, Cat. No. 902112) by the functional genomic core at University of South Carolina. Data were imported into the Affymetrix GeneChip Expression Console 1.4.1.46 and processed at the gene-level using the Robust Multichip Analysis (RMA) algorithm to generate CHP files. Experimental-group specific transcriptional responses were determined using unpaired one-way between-subject analysis of variance (ANOVA). Differentially expressed genes with p-values smaller than 0.05 and fold change higher than 2.0 and lower than −2.0 were used for further bioinformatics analysis.

[4] = tested on: OC cell lines (PA1, OVCA420, OVCAR3, SKOV3, OVCA433); assay: Live/Dead analysis under anchorage independence (anoikis), panel of OC cell lines; type: cell-based, human; conditions: 10 nM for 24 hours after 48 hours anchorage independence
PA1 cells [5] = assay: Sulforhodamine B (SRB) growth assay, attached 2D; type: cell-based, human; conditions: 10 nM, 3 days
Experimental: Growth of cells was monitored by seeding 1,000 cells per well in a 96 well plate, followed by treatment with 10 nM BMP2/9 for indicated times. At endpoint, medium was shaken out from plates, followed by addition of cold 10% trichloroacetic acid in each well, and incubation at 4° C. for 10 minutes. Five sequential wash steps were performed by complete immersion in water and shake out of the water from the plate. Next, 0.4% sulforhodamine B (SRB) in 1% acetic acid was added to each well and incubated at room temperature for 10 minutes. Five washed were done by complete immersion in 1% acetic acid followed by complete removal of the remaining wash. Plates were air dried overnight. Finally, 200 mL of 20 mM Tris pH 10 (unbuffered) was added to each well and plate rocked on a rotary shaker for 1-2 hours and absorbance measured at 570 nm with a plate reader (Vichai and Kirtikara, 2006).

SOX2 promoter = assay: Chromatin immunoprecipitation (ChIP) at SOX2 promoter regions; type: cell-based, human
Experimental: ChIP was carried out using a modified version of a previously described protocol (Medeiros et al., 2009). Cells were grown to 80% confluency in 150 mm culture dishes. Cells were fixed at room temperature in 1% Paraformaldehyde solution (dilute 8% PFA in serum free media to get 1%) and rocked for 10 minutes. 10×Glycine was added to the plate and allowed to sit for 5 minutes at room temperature. Cells were scraped down and cell suspension were transferred to a cold centrifuge tube for centrifugation at 720 RCF at 4° C. for 10 minutes. Cells were rinsed with 1X Phosphate buffer saline and centrifugation repeated. Cell pellet was next resuspended in lysis buffers described in (Medeiros et al., 2009) to obtain nuclei pellet. This was followed by chromatin sonication, using QSonica sonicator (model CL-188) for four cycles (30% amplitude for 15 secs ON and 30 secs OFF) to obtain DNA fragments with a length from 150 to 300 bp. 1/10th of the supernatant was stored as input control. ChIP was performed using Protein A magnetic beads (Dynabeads, Invitrogen #10001D) to couple […] ChIP-grade antibodies for SMAD1, SMAD3, H3K27me3, H3K4me3, or rabbit IgG antibody overnight at 4 °C. DNA was purified using the PureLink Quick PCR Purification kit (Thermo Fisher Cat #: K310001) and enrichment of DNA fragments analyzed via relative quantitative RT-PCR (qPCR) using ChIP primers (see Table 2) to specific locations. Negative and positive control regions were included in all analysis.

With “BMP9: recombinant human bone morphogenetic protein 9 (BMP9/GDF2), TGF-β family ligand” the “mice with detectable ascites” value (SKOV3-luc-GFP cells; 5 mg/kg i.p. daily) was “none”, the “intraperitoneal tumor growth by BLI in the abdomen” value (SKOV3-luc-GFP cells; 5 mg/kg i.p. daily, day 16, vs vehicle) was “significantly lower” and the “infiltrated tumor cells in omental tumors (histology)” value (SKOV3-luc-GFP cells; vs vehicle) was “significantly fewer”. For the same substance, the “increase in TUNEL-positive cells in tumors” value (SKOV3-luc-GFP cells; vs vehicle-treated mice) was 143, the “luciferase activity of SOX2 promoter reporter” value [1] was “significantly reduce” and the “decrease in percentage live cells” value (A2780ip2 cells) was 30%. For the same substance, the “increase in SOX2 promoter methylation compared with control cells” value [2] was 2.53, the downregulated genes (PA1 cells [3]) was 210 and the upregulated genes (PA1 cells [3]) was 333. The differentially expressed genes (PA1 cells [3]; p<0.05) was 543, the “percentage of dead cells” value [4] was “increase” and the cell growth (PA1 cells [5]) was “did not alter”. For the same substance, the “SMAD1 binding at sites p1 and p6 (ChIP)” value (SOX2 promoter; 1 h treatment) was “significant enrichment” and the “histone H3K27me3 on the SOX2 promoter (ChIP)” value (SOX2 promoter; PA1, 1 hour rhBMP9) was “significantly enriched”.
